One compound from patent publication US20210186905A1, “ENHANCING T-CELL FUNCTION AND TREATING A T-CELL DYSFUNCTIONAL DISORDER WITH A COMBINATION OF AN LSD INHIBITOR AND A PD-1 BINDING ANTAGONIST” (EpiAxis Therapeutic Pty Ltd, priority 2017, published 2021) can be followed below.

Molecules are shown by their SMILES. “Also recorded” adds a separate entry of the source. Structures can show the parent of a compound that is named as a salt.

In one experiment the test system is CD4+/CD8+ T-cells. The experiment in a line: Flow cytometry of T-cell populations (naive, effector and central memory) in 4T1 mice. The experiment is classed as in vivo, mouse. As to the method: FIG. 5 is a graphical representation showing that dual epigenetic-immunotherapy re-educates and re-programs the T-cell repertoire. A. Cells stimulated with PMA/ionomycin for 4 hours in the presence of Brefeldin A. Cells were surfaced stained with CD45, CD3, CD4, CD8, CD44, CD62L (for naïve, effector and central memory), CD25 and FoxP3 (for Tregs) and analyzed via Flow cytometry. A Mann-Whitney non-parametric t-test was used to compare control vs other groups (*p<0.05, n=2-5). […] Representative images for each dataset are shown. TNFI values for EOMES, TBET and Ki67 measured using Image) to select the nucleus minus background. Graphs represent the % change of expression relative to control group for CD8^+ T-cells. (n>20 individual cells, Group A=Control, Group C: PD1 (10 mg/kg), Group D: Phenelzine (40 mg/kg), Group F: PD1+Phenelzine). C. Cells stimulated with PMA/ionomycin for 4 hours in the presence of Brefeldin A. Cell were surfaced stained with CD45, CD3, CD4, CD8 and intracellular staining of IFN-γ, IL-2 and TNF-α in the presence of Brefeldin A and analyzed via flow cytometry. A Mann-Whitney non-parametric t-test was used to compare control vs other groups (*p<0.05, **p<0.008; n=2-5). […] Representative images for each dataset are shown. TNFI values for TNFα and IFNγ measured using ImageJ to select the nucleus minus background. […]
In general terms: Flow cytometry measures light scatter and fluorescence of single cells or particles in a stream.

The test system of the next experiment is CSV, LSD1p, SNAI1. Kind of experiment: Immunofluorescence of cancer cells from primary tumor micro-environment, mesenchymal CTC signature panel. The experiment is classed as in vivo, mouse. Conditions: cancer cells from primary TME; % change relative to vehicle control. As to the method:
FIG. 2 is a graphical and photographic representation showing the efficacy of dual phenelzine sulfate (phenelzine) and anti-PD1 antibody (PD1) therapy on circulating tumor cells (CTCs) and cancer stem cells (CSC) as well as tumor burden. A. Statistics of tumor volumes on day 15 post-treatment. A Mann-Whitney non-parametric t-test was used to compare control vs other groups (*p<0.02, **p<0.008). Group A=Control, Group C: PD1 (10 mg/kg), Group D: Phenelzine (40 mg/kg), Group F: PD1+Phenelzine. Illustration of the treatment protocol is also shown. […] Representative images for each dataset are shown. […] C. […] (a) Representative images for each dataset are shown. (b) Graph represents the TCFI values for CD133 TNFI for ALDH1A and TFI for ABCB5 measured using ImageJ to select the nucleus/cytoplasm minus background (n>20 individual cells, Group A=Control, Group C: PD1 (10 mg/kg), Group D: Phenelzine (40 mg/kg), Group F: PD1+Phenelzine).
FIG. 11 is a photographic and graphical representation showing triple therapy efficacy on CTC/CSC and tumor burden. […] (b) Graph represents the TCFI values for CD133 TNFI for ALDH1A and TFI for ABCB5 measured using ImageJ to select the nucleus/cytoplasm minus background (n>20 individual cells, Group A=Control, Group B: Abraxane (30 mg/kg), Group C: anti-PD1 (10 mg/kg), Group D: Phenelzine (40 mg/kg), Group E: Abraxane+PD1, Group F: PD1+Phenelzine, Group G: Abraxane+Phenelzine, Group H: Triple Therapy). […]
A total of 2×10^5 cells were injected per mouse into mammary gland in 50 μL of phosphate buffered saline (PBS). […] Tumors were measured using calipers and the tumor volumes (mm3) were calculated using the formula (length×width2)/2. ? arvested cells from primary tumors where then cytospun ? -treated with poly-1-lysine and fixed then stored in PBS for IFA Microscopy Analysis. […] Digital images were analysed using ImageJ software (ImageJ, NIH, Bethesda, Md., USA) to determine the either the Total Nuclear Fluorescent Intensity (TNFI), the Total Cytoplasmic Fluorescent Intensity (TCFI) or total Fluorescent Intensity (TFI).

With `NNCCc1ccccc1` (racemic) [phenelzine sulfate, (±)-2-phenylethylhydrazine], the “CD8+ central memory and effector memory populations” value in the experiment with CD4+/CD8+ T-cells was “enhance”. In addition, in the experiment on CSV, LSD1p, SNAI1, the SNAI1 expression result was “strong inhibition; also recorded: stronger inhibition”, the “expression of CSV” value is on record as “strong inhibition; also recorded: stronger inhibition” and the “nuclear expression of LSD1” value is given as “strong inhibition; also recorded: stronger inhibition”.
